Data from patent US7183260B2, “C-terminal modified oxamyl dipeptides as inhibitors of the ICE/ced-3 family of cysteine proteases” (Idun Pharmaceuticals, Inc., priority 1998, dated 2007).
Like-named read-outs stand apart in the source and are kept apart here.

Assays:
Assay type in all cases: biochemical
mICE = target: T1, mICE (Mus musculus, UniProt P29452); experiment: Dissociation constant Ki and irreversible rate constant k3 for irreversible inhibitors (ICE)
T1 sequence (P29452 123-296 limits assumed): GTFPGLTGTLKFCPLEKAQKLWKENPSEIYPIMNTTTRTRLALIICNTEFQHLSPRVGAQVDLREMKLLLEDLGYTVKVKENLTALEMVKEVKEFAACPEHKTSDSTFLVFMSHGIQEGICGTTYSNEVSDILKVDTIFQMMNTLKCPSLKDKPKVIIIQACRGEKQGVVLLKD
T1 sequence (P29452 315-402 limits assumed): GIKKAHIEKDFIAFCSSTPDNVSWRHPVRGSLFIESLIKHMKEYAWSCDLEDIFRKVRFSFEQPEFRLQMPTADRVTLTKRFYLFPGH

CPP32 = target: T2, CPP32 (Homo sapiens, UniProt P42574); experiment: Dissociation constant Ki and irreversible rate constant k3 for irreversible inhibitors (CPP32)
T2 sequence (P42574 29-175 limits assumed): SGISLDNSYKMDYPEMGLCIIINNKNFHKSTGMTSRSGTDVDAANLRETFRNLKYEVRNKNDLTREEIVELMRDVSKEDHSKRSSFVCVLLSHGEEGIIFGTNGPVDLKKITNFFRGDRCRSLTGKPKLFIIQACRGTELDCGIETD
T2 sequence (P42574 176-277 limits assumed): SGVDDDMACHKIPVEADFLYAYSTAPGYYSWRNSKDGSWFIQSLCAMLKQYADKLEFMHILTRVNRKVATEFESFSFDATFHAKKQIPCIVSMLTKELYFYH

MCH-2 = target: T3, MCH-2 (Homo sapiens, UniProt P55212); experiment: Dissociation constant Ki and irreversible rate constant k3 for irreversible inhibitors (Mch2)
T3 sequence (P55212 24-179 limits assumed): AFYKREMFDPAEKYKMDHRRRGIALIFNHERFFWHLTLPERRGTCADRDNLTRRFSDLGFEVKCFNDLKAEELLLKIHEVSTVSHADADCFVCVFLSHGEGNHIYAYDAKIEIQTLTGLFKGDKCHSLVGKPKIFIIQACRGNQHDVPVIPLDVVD
T3 sequence (P55212 194-293 limits assumed): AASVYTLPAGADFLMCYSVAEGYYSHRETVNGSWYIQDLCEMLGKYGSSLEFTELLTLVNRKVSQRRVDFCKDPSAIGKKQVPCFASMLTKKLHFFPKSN

MCH-5 = MCH-5 (Homo sapiens, UniProt Q14790); experiment: Dissociation constant Ki and irreversible rate constant k3 for irreversible inhibitors (Mch5)
Sequence of MCH-5 (Q14790 217-374 limits assumed, species assumed): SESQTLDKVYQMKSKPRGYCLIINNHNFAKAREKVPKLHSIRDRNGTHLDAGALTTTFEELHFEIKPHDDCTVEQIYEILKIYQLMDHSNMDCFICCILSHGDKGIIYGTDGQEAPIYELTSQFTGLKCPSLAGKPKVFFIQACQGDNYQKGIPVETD
Sequence of MCH-5 (Q14790 385-479 limits assumed, species assumed): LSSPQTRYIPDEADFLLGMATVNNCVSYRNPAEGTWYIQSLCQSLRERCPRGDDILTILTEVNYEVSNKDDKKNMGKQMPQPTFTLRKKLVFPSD

[1] = continuous assay 60 min, reaction initiated by adding enzyme to substrate-inhibitor mixture

SMILES | Ki (mICE) | mICE k3/Ki (mICE) | CPP32 k3/Ki (CPP32) | Ki (CPP32) | Ki (MCH-2) | MCH-2 k3/Ki (MCH-2) | Ki (MCH-5) | MCH-5 k3/Ki (MCH-5) | Ki (mICE; [1]) | mICE k3/Ki (mICE; [1]) | CPP32 k3/Ki (CPP32; [1]) | Ki (CPP32; [1]) | Ki (MCH-2; [1]) | MCH-2 k3/Ki (MCH-2; [1]) | Ki (MCH-5; [1]) | MCH-5 k3/Ki (MCH-5; [1])
C[C@H](NC(=O)C(=O)NC12CC3CC(CC(C3)C1)C2)C(=O)N[C@@H](CC(=O)O)C(=O)COC(=O)c1c(Cl)cccc1Cl [Example 54] | 348 nM | 46,000 moles^−1 seconds^−1 | 20,500 moles^−1 seconds^−1 | 409 nM | 120 nM | 21,100 moles^−1 seconds^−1 | 80 nM | 18,700 moles^−1 seconds^−1 | – | – | – | – | – | – | – | –
C[C@H](NC(=O)C(=O)NCc1cccc2ccccc12)C(=O)N[C@@H](CC(=O)O)C(=O)COc1c(F)c(F)cc(F)c1F [Example 33] | – | – | – | – | – | – | – | – | 5.6 nM | 2,590,000 moles^−1 seconds^−1 | 158,000 moles^−1 seconds^−1 | 61 nM | 16 nM | 335,000 moles^−1 seconds^−1 | 9.7 nM | 1,260,000 moles^−1 seconds^−1
C[C@H](NC(=O)C(=O)Nc1ccccc1Cl)C(=O)N[C@@H](CC(=O)O)C(=O)COP(=O)(c1ccccc1)c1ccccc1 [Example 57] | – | – | – | – | – | – | – | – | 5.3 nM | 1,980,000 moles^−1 seconds^−1 | 564,000 moles^−1 seconds^−1 | 44 nM | 13 nM | 373,000 moles^−1 seconds^−1 | 2.1 nM | 2,330,000 moles^−1 seconds^−1
C[C@H](NC(=O)C(=O)Nc1ccccc1C(C)(C)C)C(=O)N[C@@H](CC(=O)O)C(=O)COC(=O)c1c(Cl)cccc1Cl [Example 37] | – | – | – | – | – | – | – | – | 465 nM | 43,300 moles^−1 seconds^−1 | 142,000 moles^−1 seconds^−1 | 78 nM | 13 nM | 191,000 moles^−1 seconds^−1 | 83 nM | 39,100 moles^−1 seconds^−1
C[C@H](NC(=O)C(=O)Nc1ccccc1Cl)C(=O)N[C@@H](CC(=O)O)C(=O)COP(=O)(c1ccccc1)c1ccccc1 [Example 41] | – | – | – | – | – | – | – | – | 140 nM | 103,000 moles^−1 seconds^−1 | 162,000 moles^−1 seconds^−1 | 35 nM | 11 nM | 247,000 moles^−1 seconds^−1 | 27 nM | 179,000 moles^−1 seconds^−1
C[C@H](NC(=O)C(=O)Nc1ccccc1C(C)(C)C)C(=O)N[C@@H](CC(=O)O)C(=O)COP(=O)(c1ccccc1)c1ccccc1 [Example 47] | – | – | – | – | – | – | – | – | 14 nM | 625,000 moles^−1 seconds^−1 | 395,000 moles^−1 seconds^−1 | 24 nM | 11 nM | 484,000 moles^−1 seconds^−1 | 8.7 nM | 589,000 moles^−1 seconds^−1
CC(C)[C@H](NC(=O)C(=O)NCc1ccccc1)C(=O)N[C@@H](CC(=O)O)C(=O)COc1c(F)c(F)cc(F)c1F [Example 79] | – | – | – | – | – | – | – | – | 6 nM | 1,800,000 moles^−1 seconds^−1 | 21,000 moles^−1 seconds^−1 | 405 nM | 125 nM | 16,600 moles^−1 seconds^−1 | 5 nM | 472,000 moles^−1 seconds^−1
CC(C)[C@H](NC(=O)C(=O)Nc1ccccn1)C(=O)N[C@@H](CC(=O)O)C(=O)COc1c(F)c(F)cc(F)c1F [Example 100] | – | – | – | – | – | – | – | – | 206 nM | 36,000 moles^−1 seconds^−1 | 9,850 moles^−1 seconds^−1 | 2250 nM | 188 nM | 11,600 moles^−1 seconds^−1 | 157 nM | 19,500 moles^−1 seconds^−1
C[C@H](NC(=O)C(=O)Nc1cc(C(F)(F)F)ccc1N1CCOCC1)C(=O)N[C@@H](CC(=O)O)C(=O)COP(=O)(c1ccccc1)c1ccccc1 [Example 45] | – | – | – | – | – | – | – | – | 19 nM | 369,000 moles^−1 seconds^−1 | 100,000 moles^−1 seconds^−1 | 112 nM | 19 nM | 98,500 moles^−1 seconds^−1 | 8 nM | 441,000 moles^−1 seconds^−1
CC(C)[C@H](NC(=O)C(=O)NC(c1ccccc1)c1ccccc1)C(=O)N[C@@H](CC(=O)O)C(=O)COc1c(F)c(F)cc(F)c1F [Example 81] | – | – | – | – | – | – | – | – | 54 nM | 201,000 moles^−1 seconds^−1 | 5,380 moles^−1 seconds^−1 | 882 nM | 1150 nM | 1,430 moles^−1 seconds^−1 | 36 nM | 48,600 moles^−1 seconds^−1
CC(C)[C@H](NC(=O)C(=O)Nc1cccc2ccccc12)C(=O)N[C@@H](CC(=O)O)C(=O)COc1ccc(O)cc1 [Example 15] | – | – | – | – | – | – | – | – | 6.1 nM | 1,840,000 moles^−1 seconds^−1 | 286,000 moles^−1 seconds^−1 | 42 nM | 37 nM | 69,100 moles^−1 seconds^−1 | 5.7 nM | 625,000 moles^−1 seconds^−1
CC(C)[C@H](NC(=O)C(=O)Nc1ccccc1I)C(=O)N[C@@H](CC(=O)O)C(=O)COc1c(F)c(F)cc(F)c1F [Example 107] | – | – | – | – | – | – | – | – | 7 nM | 1,260,000 moles^−1 seconds^−1 | 42,300 moles^−1 seconds^−1 | 510 nM | 20 nM | 137,000 moles^−1 seconds^−1 | 4 nM | 1,026,000 moles^−1 seconds^−1
C[C@H](NC(=O)C(=O)NCc1ccccc1)C(=O)N[C@@H](CC(=O)O)C(=O)COC(=O)c1c(Cl)cccc1Cl [Example 52] | – | – | – | – | – | – | – | – | 340 nM | 59,100 moles^−1 seconds^−1 | 600,000 moles^−1 seconds^−1 | 29 nM | 20 nM | 244,000 moles^−1 seconds^−1 | 62 nM | 203,000 moles^−1 seconds^−1
CC(C)[C@H](NC(=O)C(=O)Nc1ccccc1Br)C(=O)N[C@@H](CC(=O)O)C(=O)COc1c(F)c(F)cc(F)c1F [Example 106] | – | – | – | – | – | – | – | – | 9 nM | 1,080,000 moles^−1 seconds^−1 | 276,000 moles^−1 seconds^−1 | 63 nM | 19 nM | 230,000 moles^−1 seconds^−1 | 3.4 nM | 1,305,000 moles^−1 seconds^−1
C[C@H](NC(=O)C(=O)Nc1cccc2c1CCCC2)C(=O)N[C@@H](CC(=O)O)C(=O)COP(=O)(c1ccccc1)c1ccccc1 [Example 61] | – | – | – | – | – | – | – | – | 23 nM | 315,000 moles^−1 seconds^−1 | 157,000 moles^−1 seconds^−1 | 69 nM | 19 nM | 120,000 moles^−1 seconds^−1 | 38 nM | 71,800 moles^−1 seconds^−1
C[C@H](NC(=O)C(=O)Nc1cccc2c1CCCC2)C(=O)N[C@@H](CC(=O)O)C(=O)COC(=O)c1c(Cl)cccc1Cl [Example 49] | – | – | – | – | – | – | – | – | 1.4 nM | 17,600,000 moles^−1 seconds^−1 | 260,000 moles^−1 seconds^−1 | 43 nM | 10 nM | 264,000 moles^−1 seconds^−1 | 4 nM | 1,920,000 moles^−1 seconds^−1
CC(C)[C@H](NC(=O)C(=O)Nc1cccc2ccccc12)C(=O)N[C@@H](CC(=O)O)C(=O)COc1cccc2ccccc12 [Example 18] | – | – | – | – | – | – | – | – | 33 nM | 254,000 moles^−1 seconds^−1 | 180,000 moles^−1 seconds^−1 | 46 nM | 20 nM | 83,700 moles^−1 seconds^−1 | 10 nM | 177,000 moles^−1 seconds^−1
C[C@H](NC(=O)C(=O)Nc1cccc2c1CCCC2)C(=O)N[C@@H](CC(=O)O)C(=O)COP(=O)(c1ccccc1)c1ccccc1 [Example 48] | – | – | – | – | – | – | – | – | 11 nM | 905,000 moles^−1 seconds^−1 | 139,000 moles^−1 seconds^−1 | 69 nM | 22 nM | 132,000 moles^−1 seconds^−1 | 4.1 nM | 1,150,000 moles^−1 seconds^−1
C/C=C/OC(=O)Oc1ccc(OCC(=O)[C@H](CC(=O)O)NC(=O)[C@@H](NC(=O)C(=O)Nc2cccc3ccccc23)C(C)C)cc1 [Example 16] | – | – | – | – | – | – | – | – | 9.5 nM | – | – | – | 43 nM | – | – | –
Cc1cc(OCC(=O)[C@H](CC(=O)O)NC(=O)[C@@H](NC(=O)C(=O)Nc2cccc3ccccc23)C(C)C)cc(=O)o1 [Example 8] | – | – | – | – | – | – | – | – | – | – | – | 26 nM | 254 nM | – | 29 nM | –
